The results in this text go back to patent US20100137313A1 (ASTRAZENECA AB, priority 2008, published 2010).

Sequence of S. pneumoniae Topoisomerase IV ATPase (ParE) (Q59961 whole entry): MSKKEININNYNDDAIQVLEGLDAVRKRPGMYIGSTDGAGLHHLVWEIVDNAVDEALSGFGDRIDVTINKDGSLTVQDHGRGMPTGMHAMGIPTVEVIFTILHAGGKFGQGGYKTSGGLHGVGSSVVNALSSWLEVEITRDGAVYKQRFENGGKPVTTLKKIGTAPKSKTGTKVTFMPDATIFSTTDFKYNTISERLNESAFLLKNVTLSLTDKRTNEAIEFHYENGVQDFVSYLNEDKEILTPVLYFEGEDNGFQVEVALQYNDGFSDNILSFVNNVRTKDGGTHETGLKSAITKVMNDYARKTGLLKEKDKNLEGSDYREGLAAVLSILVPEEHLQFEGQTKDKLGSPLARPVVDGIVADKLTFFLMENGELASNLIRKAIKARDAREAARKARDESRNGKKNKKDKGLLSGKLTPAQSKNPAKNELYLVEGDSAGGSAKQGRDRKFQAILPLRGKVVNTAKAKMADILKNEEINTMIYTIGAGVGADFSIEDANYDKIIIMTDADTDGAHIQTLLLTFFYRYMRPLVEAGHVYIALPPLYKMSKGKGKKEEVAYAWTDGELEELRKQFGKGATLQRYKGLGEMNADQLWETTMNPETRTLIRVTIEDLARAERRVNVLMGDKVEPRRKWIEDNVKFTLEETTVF

The experiment concerns the target S. pneumoniae Topoisomerase IV ATPase (ParE) (Streptococcus pneumoniae serotype 4, UniProt Q59961). Kind of experiment: S. pneumoniae Topoisomerase IV ATPase inhibition. In kind it is biochemical. Conditions: values marked * are an average of two or more data points, read-out: % Inh (13 μM) of S. pneumoniae Topoisomerase IV ATPase. The procedure, abridged: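 Malachite green/ammonium molybdate phosphate detection, A650. 1.25 nM ParE, 160 μM ATP, sheared salmon sperm DNA 5 μg/ml, 20 mM Tris pH 8.0, 8.0 mM MgCl2. Controls: 2% DMSO = 0%, 20 μM EDTA = 100% inhibition; IC50 over 10 concentrations.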
For `COc1cc(Nc2ncc(-c3cnc(OCCCS(C)(=O)=O)c(C(=O)O)c3)c(-n3nc(C(F)(F)F)cc3C)n2)cc(OC)c1` [Example 967, 5-(2-(3,5-dimethoxyphenylamino)-4-(5-methyl-3-(trifluoromethyl)-1H-pyrazol-1-yl)pyrimidin-5-yl)-2-(3-(methylsulfonyl)propoxy)nicotinic acid], the inhibition at 13 µM came out at 100%.
In the case of `COc1cc(Nc2ncc(-c3cnc(OCCCS(C)(=O)=O)c(C(=O)O)c3)c(-n3ccc(C(F)(F)F)n3)n2)cc(OC)c1` [Example 968, 5-(2-(3,5-dimethoxyphenylamino)-4-(3-(trifluoromethyl)-1H-pyrazol-1-yl)pyrimidin-5-yl)-2-(3-(mehtylsulfonyl)propoxy)nicotinic acid], the inhibition at 13 µM worked out at 94%.
As for `COc1cc(Nc2ncc(-c3cnc(OCCNC(C)=O)c(C(=O)NS(C)(=O)=O)c3)c(-n3nc(C(F)(F)F)cc3C)n2)cc(OC)c1` [Example 969, 2-(2-acetamidoethoxy)-5-(2-(3,5-dimethoxyphenylamino)-4-(5-methyl-3-(trifluoromethyl)-1H-pyrazol-1-yl)pyrimidin-5-yl)-N-(methylsulfonyl)nicotinamide], the inhibition at 13 µM came to 100%.
For `COc1cc(Nc2ncc(-c3cnc(OCCCS(C)(=O)=O)c(C(=O)NS(C)(=O)=O)c3)c(-n3nc(C(F)(F)F)cc3C)n2)cc(OC)c1` [Example 970, 5-(2-(3,5-dimethoxyphenylamino)-4-(5-methyl-3-(trifluoromethyl)-1H-pyrazol-1-yl)pyrimidin-5-yl)-N-(methylsulfonyl)-2-(3-(methylsulfonyl)propoxy)nicotinamide], the inhibition at 13 µM worked out at 100%.
In the case of `COc1cc(Nc2ncc(-c3cnc(OCCCS(C)(=O)=O)c(C(=O)NS(C)(=O)=O)c3)c(-n3ccc(C(F)(F)F)n3)n2)cc(OC)c1` [Example 971, (2-(3,5-dimethoxyphenylamino)-4-(3-(trifluoromethyl)-1H-pyrazol-1-yl)pyrimidin-5-yl)-N-(methylsulfonyl)-2-(3-(methylsulfonyl)propoxy)nicotinamide] it was 100%; in that of `COc1cc(Nc2ncc(-c3cnc(OCCCS(C)(=O)=O)c(C(=O)NS(=O)(=O)C(F)(F)F)c3)c(-n3ccc(C(F)(F)F)n3)n2)cc(OC)c1` [Example 972, 5-(2-(3,5-dimethoxyphenylamino)-4-(3-(trifluoromethyl)-1H-pyrazol-1-yl)pyrimidin-5-yl)-2-(3-(methylsulfonyl)propoxy)-N-(trifluoromethylsulfonyl)nicotinamide], 100%; in that of `COc1cc(Nc2ncc(-c3cnc(OC)c(-c4noc(=S)[nH]4)c3)c(-n3nc(C(F)(F)F)cc3C)n2)cc(OC)c1` [Example 974, 3-(5-(2-(3,5-dimethoxyphenylamino)-4-(5-methyl-3-(trifluoromethyl)-1H-pyrazol-1-yl)pyrimidin-5-yl)-2-methoxypyridin-3-yl)-1,2,4-oxadiazol-5(4H)-thione], 89%.
On to `COc1cc(Nc2ncc(-c3cnc(OC)c(-c4noc(=O)[nH]4)c3)c(-n3nc(C(F)(F)F)cc3C)n2)cc(OC)c1` [Example 975, 3-(5-(2-(3,5-dimethoxyphenylamino)-4-(5-methyl-3-(trifluoromethyl)-1H-pyrazol-1-yl)pyrimidin-5-yl)-2-methoxypyridin-3-yl)-1,2,4-oxadiazol-5(4H)-one], for which the inhibition at 13 µM was found to be 100%.
In the case of `CCOC(=O)/C=C/c1cccc(-c2cnc(Nc3ccc(F)c(Cl)c3)nc2N2CCOC(CO)C2)c1` (stereo not drawn) [Example 977, (E)-ethyl 3-(3-(2-(3-chloro-4-fluorophenylamino)-4-(2-(hydroxymethyl)morpholino)pyrimidin-5-yl)phenyl)acrylate], the inhibition at 13 µM came to 74%.
For `CCOC(=O)c1cncc(-c2cnc(Nc3ccc(F)c(Cl)c3)nc2N2CCOC(CO)C2)c1` (stereo not drawn) [Example 978, Ethyl 5-(2-(3-chloro-4-fluorophenylamino)-4-(2-(hydroxymethyl)morpholino)pyrimidin-5-yl)nicotinate], the inhibition at 13 µM stood at 82%.
On to `CC(=O)N1CCN(c2nc(Nc3ccc(F)c(Cl)c3)ncc2-c2ccc(C(=O)O)s2)CC1` [Example 982, 5-(4-(4-Acetylpiperazin-1-yl)-2-(3-chloro-4-fluorophenylamino)pyrimidin-5-yl)thiophene-2-carboxylic acid], for which the inhibition at 13 µM turned out to be 100%.
Consider `COCCCNc1nc(Nc2ccc(F)c(Cl)c2)ncc1-c1cncc(S(C)(=O)=O)c1` [Example 987, N2-(3-chloro-4-fluorophenyl)-N4-(3-methoxypropyl)-5-(5-(methylsulfonyl)pyridin-3-yl)pyrimidine-2,4-diamine], for which the inhibition at 13 µM is 30%.
The value for `CS(=O)(=O)c1cncc(-c2cnc(Nc3ccc(F)c(Cl)c3)nc2N2CCOCC2)c1` [Example 988, N-(3-chloro-4-fluorophenyl)-5-(5-(methylsulfonyl)pyridin-3-yl)-4-morpholinopyrimidin-22-amine] was 69%.
Consider `Cc1cc(C(F)(F)F)nn1-c1nc(Nc2ccc(F)c(Cl)c2)ncc1-c1cncc(S(C)(=O)=O)c1` [Example 989, N-(3-chloro-4-fluorophenyl)-4-(5-methyl-3-(trifluoromethyl)-1H-pyrazol-1-yl)-5-(5-(methylsulfonyl)pyridin-3-yl)pyrimidin-2-amine], for which the inhibition at 13 µM turned out to be 100%.
The value for `CS(=O)(=O)c1cncc(-c2cnc(Nc3ccc(F)c(Cl)c3)nc2-n2ccc(C(F)(F)F)n2)c1` [Example 990, N-(3-chloro-4-fluorophenyl)-5-(5-(methylsulfonyl)pyridin-3-yl)-4-(3-(trifluoromethyl)-1H-pyrazol-1-yl)pyrimidin-2-amine] was 100%; that for `CS(=O)(=O)CC(=O)c1cncc(-c2cnc(Nc3ccc(F)c(Cl)c3)nc2-n2ccc(C(F)(F)F)n2)c1` [Example 993, 1-(5-(2-(3-chloro-4-fluorophenylamino)-4-(3-(trifluoromethyl)-1H-pyrazol-1-yl)pyrimidin-5-yl)pyridin-3-yl)-2-(methylsulfonyl)ethanone] was 100%; that for `CCNS(=O)(=O)c1cccc(-c2cnc(Nc3ccc(F)c(Cl)c3)nc2-n2ccc(C(F)(F)F)n2)c1` [Example 995, 3-(2-(3-Chloro-4-fluorophenylamino)-4-(3-(trifluoromethyl)-1H-pyrazol-1-yl)pyrimidin-5-yl)-N-ethylbenzenesulfonamide] was 89%.
In the case of `O=S(=O)(NCCO)c1cccc(-c2cnc(Nc3ccc(F)c(Cl)c3)nc2-n2ccc(C(F)(F)F)n2)c1` [Example 997, 3-(2-(3-Chloro-4-fluorophenylamino)-4-(3-(trifluoromethyl)-1H-pyrazol-1-yl)pyrimidin-5-yl)-N-(2-hydroxyethyl)benzenesulfonamide] it was 100%; in that of `CCNC(=O)NS(=O)(=O)c1cccc(-c2cnc(Nc3ccc(F)c(Cl)c3)nc2-n2ccc(C(F)(F)F)n2)c1` [Example 998, 3-(2-(3-Chloro-4-fluorophenylamino)-4-(3-(trifluoromethyl)-1H-pyrazol-1-yl)pyrimidin-5-yl)-N-(ethylcarbamoyl)benzenesulfonamide], 100%; in that of `CCNS(=O)(=O)c1cncc(-c2cnc(Nc3ccc(F)c(Cl)c3)nc2-n2ccc(C(F)(F)F)n2)c1` [Example 1000, 5-(2-(3-Chloro-4-fluorophenylamino)-4-(3-(trifluoromethyl)-1H-pyrazol-1-yl)pyrimidin-5-yl)-N-ethylpyridine-3-sulfonamide], 64%.
`CS(=O)(=O)NC(=O)c1cccc(-c2cnc(Nc3ccc(F)c(Cl)c3)nc2-n2ccc(C(F)(F)F)n2)c1` [Example 1002, 3-(2-(3-Chloro-4-fluorophenylamino)-4-(3-(trifluoromethyl)-1H-pyrazol-1-yl)pyrimidin-5-yl)-N-(methylsulfonyl)benzamide]: the inhibition at 13 µM worked out at 100%.
In the case of `COC(=O)c1cc(-c2cnc(Nc3ccc(F)c(Cl)c3)nc2-n2nc(C(F)(F)F)cc2C)cnc1OC` [Example 1008, Methyl 5-(2-(3-chloro-4-fluorophenylamino)-4-(5-methyl-3-(trifluoromethyl)-1H-pyrazol-1-yl)pyrimidin-5-yl)-2-methoxynicotinate], the inhibition at 13 µM was found to be 83%.
On to `O=C1NC(=O)c2cc(-c3cnc(Nc4ccc(F)c(Cl)c4)nc3-n3ccc(C(F)(F)F)n3)ccc21` [Example 1009, 5-(2-(3-Chloro-4-fluorophenylamino)-4-(3-(trifluoromethyl)-1H-pyrazol-1-yl)pyrimidin-5-yl)isoindole-1,3-dione], for which the inhibition at 13 µM amounted to 92%.
As for `COC(=O)c1cc(-c2cnc(Nc3ccc(F)c(Cl)c3)nc2-n2ccc(C(F)(F)F)n2)cnc1OC` [Example 1010, Methyl 5-(2-(3-chloro-4-fluorophenylamino)-4-(3-(trifluoromethyl)-1H-pyrazol-1-yl)pyrimidin-5-yl)-2-methoxynicotinate], the inhibition at 13 µM came out at 81%.
Regarding `CCS(=O)(=O)NC(=O)c1cc(-c2cnc(Nc3ccc(F)c(Cl)c3)nc2-n2ccc(C(F)(F)F)n2)cnc1OC` [Example 1016, 5-(2-(3-Chloro-4-fluorophenylamino)-4-(3-(trifluoromethyl)-1H-pyrazol-1-yl)pyrimidin-5-yl)-N-(ethylsulfonyl)-2-methoxynicotinamide], the inhibition at 13 µM worked out at 94%.
The value for `CCS(=O)(=O)NC(=O)c1cc(-c2cnc(Nc3ccc(F)c(Cl)c3)nc2-n2nc(C(F)(F)F)cc2C)cnc1OC` [Example 1017, 5-(2-(3-Chloro-4-fluorophenylamino)-4-(5-methyl-3-(trifluoromethyl)-1H-pyrazol-1-yl)pyrimidin-5-yl)-N-(ethylsulfonyl)-2-methoxynicotinamide] was 90%.
On to `COc1cc(Nc2ncc(-c3cc(C(=O)NS(C)(=O)=O)c(=O)n(C)c3)c(-n3ccc(C(F)(F)F)n3)n2)cc(OC)c1` [Example 1019, 5-(2-(3,5-Dimethoxyphenylamino)-4-(3-(trifluoromethyl)-1H-pyrazol-1-yl)pyrimidin-5-yl)-1-methyl-N-(methylsulfonyl)-2-oxo-1,2-dihydropyridine-3-carboxamide], for which the inhibition at 13 µM came out at 100%.
